Values quoted from earlier work as cited in patent publication US9248131B2, “Aquaporin modulators and methods of using them for the treatment of edema and fluid imbalance” (THE ARIZONA BOARD OF REGENTS ON BEHALF OF THE UNIVERSITY OF …, priority 2006, dated 2016).

Target: T1, Na—K—Cl cotransporter (NKCC1) (Mus musculus, UniProt P55012)
T1 sequence (P55012 1-1205): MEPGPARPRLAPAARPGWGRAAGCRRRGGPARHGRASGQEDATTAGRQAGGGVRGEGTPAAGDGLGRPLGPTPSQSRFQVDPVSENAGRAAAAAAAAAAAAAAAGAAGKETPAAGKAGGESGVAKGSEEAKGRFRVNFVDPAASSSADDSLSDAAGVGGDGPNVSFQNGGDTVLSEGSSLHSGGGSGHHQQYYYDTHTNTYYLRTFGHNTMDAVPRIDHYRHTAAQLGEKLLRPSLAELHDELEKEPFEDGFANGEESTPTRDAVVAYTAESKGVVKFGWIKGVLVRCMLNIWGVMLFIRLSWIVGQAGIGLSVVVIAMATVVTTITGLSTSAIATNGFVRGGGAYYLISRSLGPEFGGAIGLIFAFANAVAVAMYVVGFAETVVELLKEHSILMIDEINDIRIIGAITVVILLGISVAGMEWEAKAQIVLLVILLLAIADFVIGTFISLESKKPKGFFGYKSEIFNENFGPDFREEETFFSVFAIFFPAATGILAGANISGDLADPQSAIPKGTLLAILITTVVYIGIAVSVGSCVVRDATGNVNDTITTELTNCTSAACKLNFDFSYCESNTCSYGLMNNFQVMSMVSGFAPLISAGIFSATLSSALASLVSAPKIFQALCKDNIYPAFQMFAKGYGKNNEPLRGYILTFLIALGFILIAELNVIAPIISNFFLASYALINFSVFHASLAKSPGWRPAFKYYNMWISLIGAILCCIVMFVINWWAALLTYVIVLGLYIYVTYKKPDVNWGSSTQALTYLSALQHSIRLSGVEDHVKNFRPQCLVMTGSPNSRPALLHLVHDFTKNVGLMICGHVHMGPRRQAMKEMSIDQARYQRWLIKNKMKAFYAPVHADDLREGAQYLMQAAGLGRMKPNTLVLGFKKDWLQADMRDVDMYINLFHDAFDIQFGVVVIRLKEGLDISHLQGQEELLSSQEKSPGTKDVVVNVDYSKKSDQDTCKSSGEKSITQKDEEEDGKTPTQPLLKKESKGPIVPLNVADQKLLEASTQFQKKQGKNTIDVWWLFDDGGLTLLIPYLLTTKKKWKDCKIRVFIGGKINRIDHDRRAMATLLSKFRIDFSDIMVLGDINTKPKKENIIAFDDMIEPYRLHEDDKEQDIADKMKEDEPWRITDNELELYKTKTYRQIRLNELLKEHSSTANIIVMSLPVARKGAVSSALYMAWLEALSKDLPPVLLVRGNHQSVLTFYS
Details: read-out: IC50 (half-maximal blocking concentration) against Na—K—Cl cotransporter; mouse kidney collecting duct cell line; cited from earlier work

## CCCCNc1cc(C(=O)O)cc(S(N)(=O)=O)c1Oc1ccccc1 [bumetanide]
  IC50: 330 nM
